Active and inactive are the calls of the source.
Tests used:
[1] = HIV-1 AD8 envelope cell-cell fusion blockers – cherry-pick, dose response (AID 652062); format: functional, cell-based;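 also: luciferase signal from cell-cell fusion driven by HIV-1 clade B AD8 Env; potency is for inhibitors of fusion seen as a drop in luminescence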
[2] = mouse fibroblast viability loss – cell-based, cherry-pick samples, set 2, cytotoxicity control for T. cruzi growth inhibitor project, dose response (AID 651817); format: functional; conditions: NIH3T3
[3] = intracellular Trypanosoma cruzi inhibitors in host cells – cell-based, plate reader, cherry-pick samples, set 3, dose response (AID 651818); format: functional;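 also: compounds incubated with infected cells for about four days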
[4] = blockers of HIV-1 envelope-mediated cell-cell fusion – cherry-pick, dose response (AID 652057); format: functional, cell-based
[5] = viability loss in CEM21 cells – cell-based, CellTiter-Glo luminescence, cherry-picked, cytotoxicity control for viral fusion inhibitor project, dose response (AID 652042); format: functional;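 also: potency for signal decrease meaning cytotoxicity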
[6] = target: Metabotropic glutamate receptor 5 (Rattus norvegicus, UniProt P31424); test: Identification of a glycine sulfonamide based non-MPEP site positive allosteric potentiator (PAM) of mGlu5 (calcium_assay).; format: functional
[7] = inhibitors of TRPM1-promoter reporter in SK-MEL-5 – cell-based, luciferase, dry powder, set 8, MITF inhibitor project, dose response (AID 624430); format: functional
[8] = MITF: Counter assay: A375 proliferation Measured in Cell-Based System Using Plate Reader - 2084-03_Inhibitor_Dose_DryPowder_Activity_Set8.; format: functional; conditions: A-375
[9] = MITF Orthogonal Assay: SK-MEL-5 CTG Assay Measured in Cell-Based System Using Plate Reader - 2084-02_Inhibitor_Dose_DryPowder_Activity_Set7.; format: functional
[10] = viability loss in HepG2 hepatoma cells – cell-based, cherry-picks, set 5, cytotoxicity control, dose response (AID 1053118); format: functional
[11] = target: Endoplasmic reticulum aminopeptidase 1 (Homo sapiens, UniProt Q9NZ08); test: inhibition of human ERAP1 enzyme activity – biochemical, cherry-pick, set 2, plate reader, dose response (AID 743314)
[12] = target: Metabotropic glutamate receptor 3 (Rattus norvegicus, UniProt P31422); test: inhibition of rat mGlu3 glutamate signaling – HEK/GIRK cells, thallium flux, dose response (AID 651839); format: functional
[13] = kidney cell line viability loss – HEK293T, luminescence plate reader, powder samples, set 4, cytotoxicity control, dose response (AID 651863); format: functional, cell-based; conditions: HEK293
[14] = target: Arf-GAP with SH3 domain, ANK repeat and PH domain-containing protein 1 (Homo sapiens, UniProt Q9ULH1); format: functional;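 also: biochemical fluorescence polarization dose–response screen measuring inhibition of ASAP1; ASAP1 GAP domain stimulating GTP hydrolysis by truncated human ARF1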
[15] = target: ADP-ribosylation factor GTPase-activating protein 1 (Rattus norvegicus, UniProt Q62848); test: Fluorescence polarization-based biochemical high throughput dose response screening assay to identify inhibitors of ADP-ribosylation factor GTPase activating protein 1 (ARFGAP1).; format: functional
cells = format: functional, cell-based; conditions: HEK-CNG
Galanin receptor type 3 = Galanin receptor type 3 (Homo sapiens, UniProt O60755); test: Fluorescence-based cell-based primary high throughput dose response assay to identify antagonists of the Galanin Receptor 3 (GalR3).; format: functional
[16] = target: T1, Aryl hydrocarbon receptor (Homo sapiens, UniProt P35869); conditions: Potency;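 also: confirmatory quantitative high-throughput screen measuring activation of the AhR signaling pathway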
T1 sequence (P35869 whole entry): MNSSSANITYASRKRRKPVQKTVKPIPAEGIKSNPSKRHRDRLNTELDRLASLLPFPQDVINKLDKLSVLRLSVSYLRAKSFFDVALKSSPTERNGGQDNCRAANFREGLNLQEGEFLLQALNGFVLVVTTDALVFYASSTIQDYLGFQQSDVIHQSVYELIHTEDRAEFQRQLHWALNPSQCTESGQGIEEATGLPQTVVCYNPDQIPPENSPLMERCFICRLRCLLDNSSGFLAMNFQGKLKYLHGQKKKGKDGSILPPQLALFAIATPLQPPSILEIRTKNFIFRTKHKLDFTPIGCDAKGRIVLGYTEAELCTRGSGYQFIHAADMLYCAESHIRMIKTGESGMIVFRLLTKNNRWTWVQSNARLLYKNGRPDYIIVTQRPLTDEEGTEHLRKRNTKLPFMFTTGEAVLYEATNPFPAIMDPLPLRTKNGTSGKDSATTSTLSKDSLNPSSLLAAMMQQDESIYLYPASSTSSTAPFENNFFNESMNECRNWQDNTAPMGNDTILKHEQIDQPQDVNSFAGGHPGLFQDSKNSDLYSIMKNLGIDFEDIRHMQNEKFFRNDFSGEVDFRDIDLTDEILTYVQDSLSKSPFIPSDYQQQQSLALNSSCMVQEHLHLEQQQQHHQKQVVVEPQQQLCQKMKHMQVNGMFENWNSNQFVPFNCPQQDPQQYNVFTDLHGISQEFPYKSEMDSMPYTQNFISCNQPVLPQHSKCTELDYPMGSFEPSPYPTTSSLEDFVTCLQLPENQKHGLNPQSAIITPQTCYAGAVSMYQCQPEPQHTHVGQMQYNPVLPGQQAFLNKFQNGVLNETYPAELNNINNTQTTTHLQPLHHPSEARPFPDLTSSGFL

Sequence of Metabotropic glutamate receptor 3 (P31422 whole entry): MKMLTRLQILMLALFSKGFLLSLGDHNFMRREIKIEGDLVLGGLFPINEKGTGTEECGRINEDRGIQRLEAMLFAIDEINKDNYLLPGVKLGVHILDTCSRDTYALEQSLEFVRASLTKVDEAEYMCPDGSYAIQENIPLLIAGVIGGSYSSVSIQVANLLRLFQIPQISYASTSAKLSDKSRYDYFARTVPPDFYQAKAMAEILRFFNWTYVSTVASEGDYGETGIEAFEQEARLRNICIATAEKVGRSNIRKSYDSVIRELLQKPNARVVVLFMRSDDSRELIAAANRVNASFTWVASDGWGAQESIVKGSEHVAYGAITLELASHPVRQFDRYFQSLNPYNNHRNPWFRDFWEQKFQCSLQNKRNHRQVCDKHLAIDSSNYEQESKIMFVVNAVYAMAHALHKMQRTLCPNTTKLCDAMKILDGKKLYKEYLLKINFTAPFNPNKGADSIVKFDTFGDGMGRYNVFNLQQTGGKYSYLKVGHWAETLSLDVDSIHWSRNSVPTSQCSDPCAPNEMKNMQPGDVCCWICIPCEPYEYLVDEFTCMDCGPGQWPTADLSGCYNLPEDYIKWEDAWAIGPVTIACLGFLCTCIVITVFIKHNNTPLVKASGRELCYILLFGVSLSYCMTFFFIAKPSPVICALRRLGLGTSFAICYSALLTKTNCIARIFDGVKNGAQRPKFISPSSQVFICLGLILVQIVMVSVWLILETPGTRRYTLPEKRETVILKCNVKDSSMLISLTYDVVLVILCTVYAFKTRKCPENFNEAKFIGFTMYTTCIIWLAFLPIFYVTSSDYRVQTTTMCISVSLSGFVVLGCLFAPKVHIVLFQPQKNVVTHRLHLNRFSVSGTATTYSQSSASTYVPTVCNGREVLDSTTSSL
Sequence of Metabotropic glutamate receptor 5 (P31424 whole entry): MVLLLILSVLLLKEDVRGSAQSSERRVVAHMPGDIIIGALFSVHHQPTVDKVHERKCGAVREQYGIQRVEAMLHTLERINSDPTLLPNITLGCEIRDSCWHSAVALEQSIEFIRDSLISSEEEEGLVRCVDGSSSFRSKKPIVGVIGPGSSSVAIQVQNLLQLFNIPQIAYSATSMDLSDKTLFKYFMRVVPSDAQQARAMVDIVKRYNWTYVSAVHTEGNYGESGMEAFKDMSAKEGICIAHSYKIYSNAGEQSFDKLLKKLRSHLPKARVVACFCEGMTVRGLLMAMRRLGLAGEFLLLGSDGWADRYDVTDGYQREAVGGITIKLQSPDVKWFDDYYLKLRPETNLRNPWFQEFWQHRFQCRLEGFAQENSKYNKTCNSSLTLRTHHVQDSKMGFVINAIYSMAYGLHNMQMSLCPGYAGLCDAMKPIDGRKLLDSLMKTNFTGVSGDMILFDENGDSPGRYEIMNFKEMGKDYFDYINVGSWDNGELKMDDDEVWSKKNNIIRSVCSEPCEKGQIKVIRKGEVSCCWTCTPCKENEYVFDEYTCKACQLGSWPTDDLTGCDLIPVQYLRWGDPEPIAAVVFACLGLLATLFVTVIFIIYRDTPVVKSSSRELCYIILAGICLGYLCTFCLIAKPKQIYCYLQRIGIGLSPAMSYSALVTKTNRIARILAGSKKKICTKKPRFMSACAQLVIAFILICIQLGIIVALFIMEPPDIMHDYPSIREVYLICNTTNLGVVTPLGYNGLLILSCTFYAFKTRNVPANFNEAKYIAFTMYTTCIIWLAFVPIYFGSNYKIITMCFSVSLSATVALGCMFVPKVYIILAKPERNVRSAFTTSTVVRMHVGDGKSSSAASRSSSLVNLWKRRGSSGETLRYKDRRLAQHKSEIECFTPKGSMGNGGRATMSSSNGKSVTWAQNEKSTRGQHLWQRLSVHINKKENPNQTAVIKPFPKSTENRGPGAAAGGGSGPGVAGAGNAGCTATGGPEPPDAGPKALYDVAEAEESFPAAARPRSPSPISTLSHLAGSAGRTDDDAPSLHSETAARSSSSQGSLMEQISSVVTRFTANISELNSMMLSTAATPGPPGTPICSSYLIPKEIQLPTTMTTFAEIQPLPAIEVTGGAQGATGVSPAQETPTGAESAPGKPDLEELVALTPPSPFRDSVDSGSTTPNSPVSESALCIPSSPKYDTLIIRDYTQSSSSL
Sequence of ADP-ribosylation factor GTPase-activating protein 1 (Q62848 whole entry): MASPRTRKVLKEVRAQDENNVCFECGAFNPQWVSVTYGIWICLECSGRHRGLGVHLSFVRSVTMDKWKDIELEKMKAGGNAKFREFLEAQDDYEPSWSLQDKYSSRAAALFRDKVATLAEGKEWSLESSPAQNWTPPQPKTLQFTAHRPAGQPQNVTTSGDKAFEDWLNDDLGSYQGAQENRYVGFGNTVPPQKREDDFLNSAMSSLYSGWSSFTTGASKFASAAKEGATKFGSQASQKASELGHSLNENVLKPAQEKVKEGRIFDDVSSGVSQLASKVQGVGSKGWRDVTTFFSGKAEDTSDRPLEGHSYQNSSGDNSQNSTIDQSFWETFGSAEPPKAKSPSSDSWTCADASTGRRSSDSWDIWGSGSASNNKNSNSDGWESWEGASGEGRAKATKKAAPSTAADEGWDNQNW
Sequence of Arf-GAP with SH3 domain, ANK repeat and PH domain-containing protein 1 (Q9ULH1 whole entry, the tested form may be a part): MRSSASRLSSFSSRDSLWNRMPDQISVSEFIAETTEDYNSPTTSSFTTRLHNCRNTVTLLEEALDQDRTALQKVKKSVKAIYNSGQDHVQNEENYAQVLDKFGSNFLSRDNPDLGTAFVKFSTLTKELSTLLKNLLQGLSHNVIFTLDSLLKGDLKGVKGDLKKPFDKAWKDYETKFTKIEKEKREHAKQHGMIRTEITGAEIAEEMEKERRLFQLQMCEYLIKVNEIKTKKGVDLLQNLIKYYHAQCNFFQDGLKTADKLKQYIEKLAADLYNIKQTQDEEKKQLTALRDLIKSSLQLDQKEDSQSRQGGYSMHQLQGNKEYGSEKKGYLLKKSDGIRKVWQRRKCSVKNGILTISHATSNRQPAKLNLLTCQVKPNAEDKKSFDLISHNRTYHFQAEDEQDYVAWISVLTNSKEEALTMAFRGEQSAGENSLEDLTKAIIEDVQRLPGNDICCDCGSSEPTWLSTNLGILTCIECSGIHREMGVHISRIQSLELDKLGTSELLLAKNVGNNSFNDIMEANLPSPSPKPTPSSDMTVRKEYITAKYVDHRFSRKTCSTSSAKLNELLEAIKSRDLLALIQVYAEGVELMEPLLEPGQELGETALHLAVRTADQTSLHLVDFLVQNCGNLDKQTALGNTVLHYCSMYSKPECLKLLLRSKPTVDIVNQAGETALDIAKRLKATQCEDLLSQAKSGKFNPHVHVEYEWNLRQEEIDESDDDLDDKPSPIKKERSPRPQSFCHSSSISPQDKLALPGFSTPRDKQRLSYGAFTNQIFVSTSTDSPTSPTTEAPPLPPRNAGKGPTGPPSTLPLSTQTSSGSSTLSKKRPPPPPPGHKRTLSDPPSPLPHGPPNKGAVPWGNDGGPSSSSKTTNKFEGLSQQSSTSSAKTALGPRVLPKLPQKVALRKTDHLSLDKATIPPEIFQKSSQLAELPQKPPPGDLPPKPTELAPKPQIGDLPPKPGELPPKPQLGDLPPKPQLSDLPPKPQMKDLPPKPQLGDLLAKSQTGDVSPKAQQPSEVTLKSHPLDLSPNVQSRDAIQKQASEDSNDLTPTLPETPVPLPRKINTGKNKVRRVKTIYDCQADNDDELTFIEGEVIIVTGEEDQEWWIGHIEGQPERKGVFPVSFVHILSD
Sequence of Galanin receptor type 3 (O60755 whole entry): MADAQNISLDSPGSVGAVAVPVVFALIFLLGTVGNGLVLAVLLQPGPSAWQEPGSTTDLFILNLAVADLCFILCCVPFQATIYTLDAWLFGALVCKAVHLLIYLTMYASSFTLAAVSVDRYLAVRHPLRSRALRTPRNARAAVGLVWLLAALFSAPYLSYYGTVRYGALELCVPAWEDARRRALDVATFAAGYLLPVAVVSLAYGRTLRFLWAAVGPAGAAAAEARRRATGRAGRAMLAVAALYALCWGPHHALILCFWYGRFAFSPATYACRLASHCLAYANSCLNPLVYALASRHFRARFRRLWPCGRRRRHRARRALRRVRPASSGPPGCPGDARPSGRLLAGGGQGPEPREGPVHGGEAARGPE
Sequence of Endoplasmic reticulum aminopeptidase 1 (Q9NZ08 whole entry): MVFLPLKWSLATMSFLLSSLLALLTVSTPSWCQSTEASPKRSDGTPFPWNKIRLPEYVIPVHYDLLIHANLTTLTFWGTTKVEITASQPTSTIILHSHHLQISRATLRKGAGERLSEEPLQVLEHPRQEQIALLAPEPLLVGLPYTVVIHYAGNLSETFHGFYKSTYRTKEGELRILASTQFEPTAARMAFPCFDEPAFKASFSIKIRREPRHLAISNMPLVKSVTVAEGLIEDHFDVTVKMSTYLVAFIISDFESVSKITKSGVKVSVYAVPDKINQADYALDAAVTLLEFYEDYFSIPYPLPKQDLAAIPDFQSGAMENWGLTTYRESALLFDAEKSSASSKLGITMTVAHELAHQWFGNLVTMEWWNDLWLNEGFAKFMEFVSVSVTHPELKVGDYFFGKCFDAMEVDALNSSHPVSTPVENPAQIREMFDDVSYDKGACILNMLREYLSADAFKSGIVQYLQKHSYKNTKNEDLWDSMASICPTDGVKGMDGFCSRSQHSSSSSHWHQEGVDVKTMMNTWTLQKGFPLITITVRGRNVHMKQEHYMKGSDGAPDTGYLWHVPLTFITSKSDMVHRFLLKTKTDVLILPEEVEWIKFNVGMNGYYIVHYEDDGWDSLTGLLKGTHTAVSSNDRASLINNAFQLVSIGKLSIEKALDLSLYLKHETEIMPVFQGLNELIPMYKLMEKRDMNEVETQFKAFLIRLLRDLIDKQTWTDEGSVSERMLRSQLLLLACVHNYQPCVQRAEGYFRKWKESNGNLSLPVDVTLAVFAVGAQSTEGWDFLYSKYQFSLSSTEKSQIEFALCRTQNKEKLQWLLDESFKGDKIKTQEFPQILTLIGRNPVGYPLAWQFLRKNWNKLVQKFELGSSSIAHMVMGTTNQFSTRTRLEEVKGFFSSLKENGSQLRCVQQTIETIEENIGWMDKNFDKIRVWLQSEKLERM

**Q.** For `C[C@@H]1CN([C@H](C)CO)C(=O)c2cccc(NC(=O)c3ccncc3)c2O[C@H]1CN(C)Cc1ccc(Cl)c(Cl)c1`, which AC50 [1] is on record?
**A.** The AC50 was 29.8 µM (active).

**Q.** What about the AC50 [2] of the same compound?
**A.** Its AC50 is 27.6 µM (active).

**Q.** And the AC50 [3]?
**A.** Its AC50 is 80 nM (active).

**Q.** What about the AC50 [4] of the same compound?
**A.** Its AC50 is 7.3 µM (active).

**Q.** And the AC50 [5]?
**A.** Its AC50 is 38.5 µM (active).

**Q.** For `CCS(=O)(=O)N1c2ccccc2CC[C@H]1C(=O)Nc1cccc(Cl)c1`, which EC50 [6] is on record?
**A.** The EC50 was 1740 nM.

**Q.** Which results are given for `CCN1CCN(C2=C(Nc3cccc(Br)c3)C(=O)c3ccccc3C2=O)CC1`?
**A.** AC50 [7]: 3.45 µM (active); AC50 [8]: 26.2 µM (active); AC50 [9]: 8.08 µM (active)

**Q.** With `COCC(=O)Nc1ccc2c(c1)C(=O)N(C)[C@H]1CC[C@@H](CC(=O)NCc3ccccc3Cl)O[C@@H]1CO2` as the compound, how does the AC50 [10] read?
**A.** Its AC50 is > 52 µM (inactive).

**Q.** For `COc1ccc2c3c([nH]c2c1)[C@@H](CO)N(Cc1ccccc1OC)CC31CN(C)C1`, which AC50 [11] is on record?
**A.** The AC50 was 15.8 µM (active).

**Q.** With `COc1ccc(C#Cc2ccc(C(=O)N3CCC[C@@H](O)C3)cc2)c(F)c1` as the compound, how does the IC50 [12] read?
**A.** Its IC50 is 4.29 µM.

**Q.** Which AC50 [13] does the source give for `O=C(O)C1CCCCC1C(=O)N1CCc2ccccc2[C@H]1C(=O)NC12CC3CC(CC(C3)C1)C2` (stereo partly drawn) here?
**A.** The AC50 was > 52 µM (inactive).

**Q.** Which IC50 [14] does the source give for `COc1ccc(/C=N\NC(=O)c2ccc([N+](=O)[O-])cc2)cc1COc1c(F)c(F)cc(F)c1F` here?
**A.** The IC50 was 15.7 µM (inactive).

**Q.** And the IC50 [15]?
**A.** Its IC50 is 12.4 µM (inactive).

**Q.** For `C[C@H]1C[C@H]2[C@@H]3CCC4=CC(=O)C=C[C@]4(C)[C@@]3(F)[C@@H](O)C[C@]2(C)[C@@]1(O)C(=O)CO` [BETAMETHASONE], which EC50 (cells) is on record?
**A.** The EC50 was > 29.9 µM (inactive).

**Q.** And the IC50 (Galanin receptor type 3)?
**A.** Its IC50 is > 29.9 µM (inactive).

**Q.** For `CNc1cnn(-c2cccc(C(F)(F)F)c2)c(=O)c1Cl` [NORFLURAZONE], which AC50 [16] is on record?
**A.** Its AC50 is 31.6 µM (inconclusive).

From ChEMBL document CHEMBL1201862, “PubChem BioAssay data set” (2004)
